Values after ≈ are worked out from the molar mass of the structure shown.
Experiments:
[1] = test system: Methicillin-resistant S. aureus ATCC 43300; experiment: microbe, parasite or virus in culture; conditions: ATCC 43300, 24 h
Outline: (§1)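 Reported values are MICs read as the lowest concentration showing no visible growth after 24 h at 37 °C. Compounds were tested by twofold broth microdilution in Mueller Hinton broth over 8 to 0.003 µg mL^−1.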

[2] = test system: Multi-drug-resistant S. pneumoniae ATCC 700677; experiment: microbe, parasite or virus in culture; conditions: ATCC 700677
Outline: as §1

[3] = test system: Vancomycin-intermediate S. aureus NRS1; experiment: microbe, parasite or virus in culture; conditions: Vancomycin-intermediate NRS1
Outline: as §1

[4] = test system: Vancomycin-resistant (VanA) Enterococcus faecium ATCC 51559; experiment: microbe, parasite or virus in culture; conditions: ATCC 51559
Outline: as §1

Cytotoxicity MTT assay [5] = type: cell-based, human; conditions: human
Cytotoxicity MTT assay [6] = type: cell-based, human; conditions: human; remark: listed apart in the source
Outline: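 Duplicate wells were used, with viability calculated against untreated and positive-control wells. Readout was MTT reduction: 2 h with 0.4 mg mL^−1 MTT, formazan dissolved in DMSO, absorbance at 570 nm. Before that, compound was applied 24 h at 37 °C over 100–0.046 µM (threefold dilutions) to HepG2 or HEK293 cells seeded 24 h earlier in DMEM/1% FBS.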

[7] = test system: Bacillus subtilis ATCC 6633; experiment: microbe, parasite or virus in culture; type: cell-based
Method: All compounds were dissolved in H2O. Bacillus subtilis ATCC® 6633™ NRS-231 was cultured in MHB at 37 °C for 48 h. A sample of each culture was then diluted 40-fold in fresh MHB and incubated at 37 °C for 18 h. Compounds were added to each row of 96-well NBS plates (NBS, Corning 3641), in duplicate. The tripeptide N,N΄-diacetyl-L-Lys-D-Ala-D-Ala was serially diluted twofold across the compound-containing wells from 6400 to 3 µg mL^−1. To this the resultant mid-log phase cultures were diluted to the final concentration of 5 × 10^5 CFU mL^−1, then added to wells of the compound-containing plates. All the plates were covered and incubated at 37 °C for 24 h.

[8] = Critical micelle concentration assay; type: physicochemical; conditions: 0.2 M NaCl, DPH
Method: CMCs were determined as previously described[46] with a higher throughput modification. Briefly, a cascade dilution of each antibiotic was performed in a low binding polypropylene V-bottom shaped 96-well plates in the presence of 0.2 M NaCl solution across 12 concentrations ranging from 1000 to 0.1 μM, except the control melittin (100 to 0.01 μM). An identical cascade dilution was performed for the neutral detergent Triton X-100 and the anionic detergent sodium dodecyl sulphate (SDS) starting from 0.1% down to 0.00001% (vol:vol for Triton X-100 and wt:vol for SDS). An aliquot of […] (DPH) in DMSO was added in each well to yield the final DPH concentration of 5 μM. The reaction mixtures were mixed for 30 s and transferred in horizontal triplicate (25 μL per well) into a black falcon 384-well plate. The 384-well plate was then sealed, wrapped up in aluminium foil and incubated for 30 min at room temperature. The fluorescence intensity was monitored in real time using a BMG Labtech PolarStar Omega multimode reader fitted with 360-10 and 430-10 excitation and emission filters respectively, at an excitation wavelength of 360 nm and an emission wavelength of 430 nm.

[9] = 37 °C, 20 µM
Method: (§2) Briefly, test compounds (20 μM) were prepared from a 0.2 mM H2O stock solution (40 μL in 400 μL assay volume) except eucatropine, which was 300 μg mL^−1 in 100% DMSO (10 μL in 400 μL assay volume equivalent to 23 μM). The precipitating solution was prepared by adding 5 μL of 10 mM carbutamide in DMSO to 100 mL acetonitrile (final concentration: 135.5 ng mL^−1 or 0.5 μM carbutamide). The human plasma sample (pooled normal human plasma sodium heparin anticoagulant, 2 µL, Cat No.: [sequence], BioReclamation) and phosphate-buffer saline (PBS, pH 7.4 isotonic) were pre-heated at 37 °C for 30 min. 40 μL of test compounds (0.2 mM) were added to protein-low binding Eppendorf tubes, 160 μL of buffer was added, and the mixture was vortexed. For eucatropine, 10 μL of eucatropine (300 μg mL^−1) was added to a protein-low binding Eppendorf tube, 190 μL of buffer was added, and the mixture was vortexed. In each case, 200 μL of plasma was added and the resultant mixture vortexed. For the initial time point (reaction time t = 0 h), 50 μL of sample was immediately transferred into a protein-low binding Eppendorf tube and quenched with 150 μL of the ice-cold precipitating solution, followed by vortexing and subsequent storage at 4 °C. For the remaining time points, the plasma solution was incubated and shaken (150 rpm) at 37 °C. 50 μL aliquots were collected at time points of 0, 1, 3, 6 and 24 h and quenched with 150 μL the ice-cold precipitating solution. All samples were placed in a 4 °C fridge for 30 min then centrifuged at 14,000 × g for 8 min at 4 °C. The supernatant (100 μL) was transferred to a glass vial insert and stored at 4 °C until LC-MS/MS analysis. The percentage of test compounds remaining at the individual time points relative to sample at time point 0 h were reported.

in vitro = conditions: human, 50% human plasma (pooled, sodium heparin) in PBS, pH 7.4
Method: as §2

## CN[C@H](CC(C)C)C(=O)N[C@H]1C(=O)N[C@@H](CC(N)=O)C(=O)N[C@H]2C(=O)N[C@H]3C(=O)N[C@H](C(=O)N[C@H](C(=O)NCCCC[C@H](NC(=O)[C@H](CCCCN)NC(=O)[C@H](CCCCN)NC(=O)[C@H](CCCCNC(=O)c4ccc(Oc5ccccc5)cc4)NC(=O)c4ccc(Oc5ccccc5)cc4)C(=O)O)c4cc(O)cc(O)c4-c4cc3ccc4O)[C@H](O)c3ccc(c(Cl)c3)Oc3cc2cc(c3O[C@@H]2O[C@H](CO)[C@@H](O)[C@H](O)[C@H]2O[C@H]2C[C@](C)(N)[C@H](O)[C@H](C)O2)Oc2ccc(cc2Cl)[C@H]1O [Compound 23, POP2K-KK-K(Vancomycin)-OH]
[1]
  MIC MRSA: <3 ng/mL
[2]
  MIC MDR S.P.: <3 ng/mL
[3]
  MIC VISA: 0.5 µg/mL (≈ 212 nM)
[4]
  MIC VRE: 4 µg/mL (≈ 1700 nM)
Cytotoxicity MTT assay [5]
  CC50 at 24 h: 41 µM
Cytotoxicity MTT assay [6]
  CC50 at 24 h: 47 µM
[7]; ATCC 6633, 48 h
  Ac2Kaa concentration required to neutralise MIC activity: 200 µg/mL
  MIC: ≤ 4 ng/mL
[7]; [ligand]/[antibiotic], B. subtilis ATCC 6633, 24 h
  Molar excess of Ac2Kaa ligand required to antagonise antibacterial activity: 15,102
[8]
  critical micelle concentration (CMC): exceed 100 µM
[9]
  % compound remaining after incubation in 50% human plasma, 0h: 100%
In vitro
  remaining at 1 h, 20 µM: 107%
  remaining at 6 h, 20 µM: 103%
  remaining at 24 h, 20 µM: 99%

Reference: article PMC5750218, “Protein-inspired antibiotics active against vancomycin- and daptomycin-resistant bacteria” (Nature Communications, 2018)
